Here are results for three compounds from patent publication US6497899B2, “Rapidly disintegrating and fast-dissolving solid dosage form” (Pfizer, Inc., priority 2000, dated 2002).

A short description of the data set: Dissolution testing of medicated tablets, USP/NF method 711, apparatus 2 at 50 RPM, UV absorption. Format: physicochemical. The following applies: medicated steam extruded starch solid dosage form, apparatus 2, 50 RPM. The protocol:
Dosage form dissolution is measured by the United States Pharmacopeia/National Formulary (USP/NF) method 711 (United States Pharmacopeia, Rockville, Md., USA) and is summarized below:
The assembly from Apparatus 1 is used except that a paddle formed from a blade and a shaft is used as the stirring element. The shaft is positioned so that its axis is not more than 2 mm at any point from the vertical axis of the vessel and rotates smoothly without significant wobble. The vertical center line of the blade passes through the axis of the shaft so that the bottom of the blade is flush with the bottom of the shaft. The distance of 25±2 mm between the blade and the inside bottom of the vessel is maintained during the test. The metallic or suitably inert, rigid blade and shaft comprise a single entity that may be coated with a suitable inert coating. The dosage unit is allowed to sink to the bottom of the vessel before rotation of the blade is started. A small, loose piece of nonreactive material such as not more than a few turns of wire helix may be attached to dosage units that would otherwise float. Other validated sinker devices may be used. […]
The stated volume of the dissolution medium (±1%) is placed in the vessel of the apparatus. The dissolution medium is equilibrated to 37±0.5°C., and the thermometer removed. One solid dosage form is placed in the apparatus, taking care to exclude air bubbles from the surface of the dosage-form unit and either apparatus is immediately operated at a rate of 50 rpm. The concentration of dissolved drug in dissolution medium is measured over time by ultraviolet spectrophotometer to calculate the dissolution rate.
The medicated tablets were dissolved according to USP/NF method 711 using apparatus 2 at 50 RPM. Levels of medicament released were determined by UV absorption.

Where [1] appears, read: dissolution media Simulated Intestinal Fluid without enzyme.
The mark [2] stands for this setting: dissolution media deionized H2O, 37 C.

Consider `CC(C(=O)O)c1ccc2c(c1)[nH]c1ccc(Cl)cc12` (stereo not shown) [Carprofen], for which, under setting [1], the 1 minute release is listed as 33.4%, the 5 minute release is 69.6%, the 10 minute release was 82.8% and the 60 minute release is 101.4%.
For the compound `Cl.Cl.O=C(O)COCCN1CCN(C(c2ccccc2)c2ccc(Cl)cc2)CC1` (stereo not shown) [Cetirizine.HCl], under setting [2], the 1 minute release stood at 65.5%, the 5 minute release was 82.7% and the 60 minute release is given as 100.1%.
Under setting [2], `OC(Cn1cncn1)(Cn1cncn1)c1ccc(F)cc1F` [Diflucan, Fluconazole] yielded a 1 minute release of 60.3%, a 5 minute release of 76.7% and a 60 minute release of 97.6%.
